According to patent publication US20060063736A1, “Compositions and methods for inhibiting mucin-type O-linked glycosylation” (priority 2004, published 2006):

Legend:
[1] = molecular target: T1, rppGalNAcT-10 (Rattus norvegicus, UniProt Q925R7); assay: Radiolabel capture assay, rppGalNAcT-10; type: biochemical; details: MUC5AC glycopeptide
T1 construct: plasmids encoding truncated secreted ppGalNAcTs-1 to −5, -7, -10 and -11; made in house; host or cells: COS-7
T1 sequence (Q925R7 32-603 limits assumed): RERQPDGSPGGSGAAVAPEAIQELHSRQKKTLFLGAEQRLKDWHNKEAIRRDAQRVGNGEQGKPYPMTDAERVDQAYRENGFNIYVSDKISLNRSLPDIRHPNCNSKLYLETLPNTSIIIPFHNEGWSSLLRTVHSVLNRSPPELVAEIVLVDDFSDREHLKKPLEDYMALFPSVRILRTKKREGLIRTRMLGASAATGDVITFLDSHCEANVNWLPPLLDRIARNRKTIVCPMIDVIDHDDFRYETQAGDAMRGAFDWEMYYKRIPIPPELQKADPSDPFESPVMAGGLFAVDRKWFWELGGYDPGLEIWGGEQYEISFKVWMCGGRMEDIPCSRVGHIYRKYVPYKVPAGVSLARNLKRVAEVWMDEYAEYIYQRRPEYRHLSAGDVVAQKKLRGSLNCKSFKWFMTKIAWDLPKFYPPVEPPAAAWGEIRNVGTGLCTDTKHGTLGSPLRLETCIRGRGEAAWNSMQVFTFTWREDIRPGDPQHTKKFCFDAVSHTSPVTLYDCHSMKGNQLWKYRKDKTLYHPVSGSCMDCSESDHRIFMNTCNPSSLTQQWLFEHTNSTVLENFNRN
Description: Radiolabel capture assays using ^14C-labeled UDP-GalNAc were performed as previously described with various concentrations of 1-68A or 2-68A in 2% DMSO. Ten Hagen et al. (2001) J. Biol. Chem. 276:17395-17404.
Table 1. IC50 values for 1-68A and 2-68A with ppGalNAcTs-1 to −5, -7, -10, -11, β1-4GalT and α1-3GalT. The requirement of glycopeptides as substrates for ppGalNAcT-7 and -10 precluded the use of the ELLA, as both the substrate and product bind HPA-HRP. Thus, the radiolabel capture assay was employed to measure the IC50 values of 1-68A and 2-68A with ppGalNAcT-7 and -10 using MUC5AC (GTTPSPVPTTSTTSAP; SEQ ID NO:15) glycopeptide, previously shown to be substrate for both enzymes. Ten Hagen et al. (1999) J. Biol. Chem. 274:27867-27874; and Ten Hagen et al. (2001) J. Biol. Chem. 276:17395-17404. IC50 values of 1-68A and 2-68A with ppGalNAcT-5 were performed with α-FLAG purified enzyme and radiolabel capture assay, due to low activity and stability of the crude enzyme. m=murine, r=rattus.

[2] = tested on: Jurkat cells; assay: Con A staining of N-linked glycans on Jurkat cells, flow cytometry; type: cell-based, human; details: 2 d treatment
Description: Jurkat cells were seeded at 250,000 cells/well (determined by Coulter cell counter) in 12-well polystyrene tissue culture plates in 1.0 mL of media and treated with various concentrations of 1-68A or 2-68A from 50 mM dimethyl sulfoxide (DMSO) stock solutions or doxorubicin or campothecin from 1 mM DMSO stock solutions. After 2 d, cells were harvested, washed twice with PBS buffer (PBS, pH 7.4, 0.1% FCS, 0.1% NaN3 w/v) and stained with FITC-HPA (1 μg/mL) or FITC-Con A (5 μg/mL with 1 mM CaCl2) in PBS, pH 7.4 in the dark for 1 h at 4° C. Cells were washed twice with PBS buffer, resuspended in 300 μL of PBS buffer and analyzed by flow cytometry (FacsCaliber, BD Instruments). Annexin-V staining was performed according to the manufacturer's protocols (Invitrogen).
To directly monitor ppGalNAcT activities in cells, Jurkat cells (human T-cell lymphoma), which are known to produce only the Tn-antigen (FIG. 1) as their O-linked glycans, were chosen. Piller et al. (1990) J. Biol. Chem. 265:9264-9271. Changes in Tn-antigen expression on the surface of Jurkat cells were monitored by HPA binding followed by flow cytometry analysis. Con A staining of N-linked glycans was used as a control for non-specific inhibition of protein glycosylation. Baenziger and Fiete (1979) J. Biol. Chem. 254:2400-2407.

[3] = tested on: HEK 293T cells; assay: TUNEL staining of HEK 293T cells (apoptosis); type: cell-based, human; details: 100 μM, 24 h
Description: (§1) HEK 293T cells were seeded at 20,000 cells/mL in a 24-well plate (Costar) fit with glass cover slips (Fisher). After 24 h of incubation with 100 μM 1-68A, cells were washed twice with PBS (pH 7.4) and fixed with 4% paraformaldehyde-PBS for 1 h at rt. The cells were washed twice with PBS and incubated with permeabilization solution (0.1% Triton X-100 in 0.1% sodium citrate, freshly prepared) for 2 min on ice. After the cells were washed twice with PBS, 50 μL of TUNEL reaction mixture (1:10 dilution, Boehringer Mannheim) was added. The plate was covered with parafilm to avoid evaporative loss and incubated in a humidified atmosphere for 1 h at 37° C. in the dark. The cells were then rinsed three times with PBS and blocked with 2% BSA in PBST (PBS, 0.05% Tween 20) for 30 min at rt. Following one wash with PBS, the cells were incubated with 100 μL of FITC-jacalin (4 μg/mL in PBST) for 1 h at 37° C. in the dark. […] Slides were analyzed by fluorescence microscopy (Zeiss, using Openlab software).
(§2) To determine if the inhibition of O-linked glycosylation and induction of apoptosis by 1-68A and 2-68A were specific to Jurkat cells, the effects of 1-68A on human embryonic kidney (HEK) 293T cells were evaluated. In this case, O-linked glycans on the cell surface were monitored by staining with jacalin, a lectin that binds core 1 structures (Galβ1,3-GalNAcα1-Ser/Thr). […]

[4] = tested on: HEK 293T cells; assay: Jacalin staining of O-linked glycans on HEK 293T cells; type: cell-based, human; details: 100 μM, 24 h
Description: as §1, §2

O=c1ccn([C@@H]2O[C@H](CON=Cc3ccc(O)c(O)c3O)[C@@H](O)[C@H]2O)c(=O)[nH]1 [1-68A]
IC50 [1]: 7 ± 1 µM
effect on Con A staining [2]: no significant effect
effect on TUNEL staining compared to untreated cells [3]: increases
effect on jacalin staining [4]: inhibits

O=C(CON=Cc1ccc(O)c(O)c1O)NC[C@H]1O[C@@H](n2ccc(=O)[nH]c2=O)[C@H](O)[C@@H]1O [2-68A]
IC50 [1]: 6 ± 1 µM
effect on Con A staining [2]: no significant effect
